Experimental data published in patent publication US6221865A, “Inhibitors of protein isoprenyl transferases” (priority 1998, dated 2001).
Counter-ions that a name gives are not always drawn.

Target: T1, protein farnesyltransferase (Rattus norvegicus, UniProt Q02293+Q04631)
T1 construct: The enzyme is purified according to Reiss, Y., et al., Cell, 62: 81-88 (1990), utilizing steps one through three; from tissue; host or cells: rat brain
Assay: Inhibition of farnesyltransferase (scintillation proximity assay, rat brain enzyme, biotin-K Ras B fragment substrate)
Format: biochemical
Details: 1 × 10^-5 M (Table 1)
How it was run: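 Enzyme from rat brain, partly purified (steps one to three), assayed by SPA kit using 0.1 mM final biotin-K Ras B peptide as prenyl acceptor rather than biotin-lamin. Activity given as percent inhibition.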

T1 sequence (Q02293 whole entry, one chain of several): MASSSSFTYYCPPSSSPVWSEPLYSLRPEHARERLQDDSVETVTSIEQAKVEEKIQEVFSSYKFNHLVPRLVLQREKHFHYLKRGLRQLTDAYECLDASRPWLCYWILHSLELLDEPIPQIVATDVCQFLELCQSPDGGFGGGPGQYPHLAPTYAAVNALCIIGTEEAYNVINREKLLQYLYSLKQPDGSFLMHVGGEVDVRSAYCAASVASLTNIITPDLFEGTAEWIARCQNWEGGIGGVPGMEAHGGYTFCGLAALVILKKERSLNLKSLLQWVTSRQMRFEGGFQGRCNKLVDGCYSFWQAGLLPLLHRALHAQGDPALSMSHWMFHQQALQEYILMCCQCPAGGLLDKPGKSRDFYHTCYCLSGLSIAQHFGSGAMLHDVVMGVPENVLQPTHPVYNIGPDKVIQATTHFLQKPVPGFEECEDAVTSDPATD

First: CSCC[C@H](NC(=O)c1ccc(CNc2ccc(O)cc2)cc1-c1ccccc1)C(=O)O [Example 689]
Second: CSCC[C@H](NC(=O)c1ccc(CNc2ccc(C3CCCCC3)cc2)cc1-c1ccccc1)C(=O)O [Example 699]
The “% inhibition of farnesyltransferase at 1 × 10^-5 M” value (“% inhibition … at 1 × 10^-5 M” below) of the first is lower: 73% for the first, 74% for the second.

Going from `COc1ccc(Br)c(C(=O)Nc2ccc(C(=O)N[C@@H](CCSC)C(=O)O)c(-c3ccccc3)c2)c1` [Example 754] to `CSCC[C@H](NC(=O)c1ccc(CNc2cc[nH]n2)cc1-c1ccccc1)C(=O)O` [Example 370], the “% inhibition … at 1 × 10^-5 M” value rises from 40% to 86%.

Compared with `CSCC[C@H](NC(=O)c1ccc(CNc2cccc(Oc3ccccc3)c2)cc1-c1ccccc1)C(=O)O` [Example 686], `CSCC[C@H](NC(=O)c1ccc(CNc2ccc(Oc3ccccc3)cc2)cc1-c1ccccc1)C(=O)O` [Example 701] is higher in “% inhibition … at 1 × 10^-5 M” value: 48% for the first, 64% for the second.

`CSCC[C@H](NC(=O)c1ccc(CNc2ccc(-c3ccccc3)cc2)cc1-c1ccccc1)C(=O)O` [Example 700] was tested, and the “% inhibition … at 1 × 10^-5 M” value was 68%.

For `CSCC[C@H](NC(=O)c1ccc(NC(=O)[C@@H]2C[C@@H](O)CN2)cc1-c1ccccc1)C(=O)O` [Example 952], the “% inhibition … at 1 × 10^-5 M” value was > 50%.

Same assay, conditions: 1 × 10^-6 M (Table 2)

First: CSCC[C@H](NC(=O)c1cc(Cc2ccccc2)c(COCc2ccco2)cc1-c1ccccc1C)C(=O)O [Example 924]
Second: CSCC[C@H](NC(=O)c1ccc(CN(CCc2ccccc2)C(C)C)cc1-c1ccccc1C)C(=O)O [Example 835]
The “% inhibition of farnesyltransferase at 1 × 10^-6 M” value (shortened to “% inhibition … at 1 × 10^-6 M”) of the first is lower: 77% for the first, 96% for the second.

Going from `CSCC[C@H](NC(=O)c1ccc(CN(Cc2ccccc2)Cc2cccc(Oc3ccccc3)c2)cc1-c1ccccc1C)C(=O)O` [Example 514] to `CSCC[C@H](NC(=O)c1ccc(OCCOc2ccccc2)cc1-c1ccccc1C)C(=O)O` [Example 561], the “% inhibition … at 1 × 10^-6 M” value falls from 94% to 91%.

Going from `CSCC[C@H](NC(=O)c1ccc(CNc2ccc(S(=O)(=O)Nc3onc(C)c3C)cc2)cc1-c1ccccc1C)C(=O)O` [Example 726] to `CSCC[C@H](NC(=O)c1ccc(CNc2ccc(OC(F)(F)F)cc2)cc1-c1ccccc1)C(=O)O` [Example 691], the “% inhibition … at 1 × 10^-6 M” value falls from 81% to 34%.

Compared with `CSCC[C@H](NC(=O)c1ccc(COC2CCN(Cc3ccccc3)C2)cc1-c1ccccc1C)C(=O)O` (stereo partly shown) [Example 987], `CSCC[C@H](NC(=O)c1ccc(OC/C=C/c2ccccc2)cc1-c1ccccc1C)C(=O)O` [Example 560] is lower in “% inhibition … at 1 × 10^-6 M” value: 93% for the first, 91% for the second.

Compared with `CSCC[C@H](NC(=O)c1ccc(CSC2CCCCC2)cc1-c1ccccc1C)C(=O)[O-].[Li+]` [Example 550], `CSCC[C@H](NC(=O)c1ccc(CN[C@H](C)CC2CCCCC2)cc1-c1ccccc1C)C(=O)O` [Example 613] is higher in “% inhibition … at 1 × 10^-6 M” value: 96% for the first, 97% for the second.

First: CSCC[C@H](NC(=O)c1ccc(NC(=O)C[C@H]2C[C@@H](C(C)=O)C2(C)C)cc1-c1ccccc1)C(=O)O [Example 751]
Second: CSCC[C@H](NC(=O)c1ccc(NC(=O)C2=C(C(F)(F)F)C=CNC2)cc1-c1ccccc1)C(=O)O [Example 283]
The “% inhibition … at 1 × 10^-6 M” value of the first is lower: 32% for the first, 98% for the second.

Going from `CCOC[C@H](CC1CCCCC1)OCc1ccc(C(=O)N[C@@H](CCSC)C(=O)O)c(-c2ccccc2C)c1` [Example 525] to `CSCC[C@H](NC(=O)c1ccc(CN(CCC2CCCCC2)C(=O)N(C)C)cc1-c1ccccc1C)C(=O)O` [Example 610], the “% inhibition … at 1 × 10^-6 M” value falls from 99% to 94%.

Going from `CSCC[C@H](NC(=O)c1ccc(CN[C@@H](CC2CCCCC2)[C@@H](O)[C@@H](O)CC(C)C)cc1-c1ccccc1)C(=O)O` [Example 716] to `COc1ccc(CCOCc2ccc(C(=O)N[C@@H](CCSC)C(=O)O)c(-c3ccccc3C)c2)cc1` [Example 937], the “% inhibition … at 1 × 10^-6 M” value rises from 69% to 95%.

Same assay, conditions: 1 × 10^-7 M (Table 3)

`CSCC[C@H](NC(=O)c1ccc(CN(Cc2ccc(Cl)cc2)c2ccccc2)cc1-c1ccccc1C)C(=O)O` [Example 781] and `CSCC[C@H](NC(=O)c1ccc(CNCC(=O)N(Cc2ccccc2)Cc2ccccc2)cc1-c1ccccc1C)C(=O)O` [Example 914] are the same in “% inhibition of farnesyltransferase at 1 × 10^-7 M” value (shortened to “% inhibition … at 1 × 10^-7 M”): 91% for the first, 91% for the second.

First: CCCC[C@H](CC1CCCCC1)NCc1ccc(C(=O)N[C@@H](CCSC)C(=O)O)c(-c2ccccc2C)c1 [Example 615]
Second: CSCC[C@H](NC(=O)c1ccc(CNC(CC2CCCCC2)CC2CCCCC2)cc1-c1ccccc1C)C(=O)O [Example 524]
The “% inhibition … at 1 × 10^-7 M” value of the first is lower: 94% for the first, 99% for the second.

Going from `CSCC[C@H](NC(=O)c1ccc(COC2CCC(NC(=O)OC(C)(C)C)CC2)cc1-c1ccccc1C)C(=O)[O-].[Li+]` (stereo partly shown) [Example 817] to `CSCC[C@H](NC(=O)c1ccc(COCc2cc3ccccc3o2)cc1-c1ccccc1C)C(=O)[O-].[Li+]` [Example 533], the “% inhibition … at 1 × 10^-7 M” value rises from 60% to 91%.

Compared with `CSCC[C@H](NC(=O)c1ccc(COCc2cccc3ccccc23)cc1-c1ccccc1C)C(=O)[O-].[Li+]` [Example 584], `CSCC[C@H](NC(=O)c1ccc(COCc2ccc(-c3ccccc3C(F)(F)F)o2)cc1-c1ccccc1C)C(=O)[O-].[Li+]` [Example 438] is lower in “% inhibition … at 1 × 10^-7 M” value: 96% for the first, 90% for the second.

First: CSCC[C@H](NC(=O)c1ccc(CN(CCC23CC4CC(CC(C4)C2)C3)c2ccccc2)cc1-c1ccccc1C)C(=O)O [Example 511]
Second: CCSC[C@H](CC1CCCCC1)N(Cc1ccc(C(=O)N[C@@H](CCSC)C(=O)O)c(-c2ccccc2C)c1)C(=O)c1ccccc1 [Example 949]
The “% inhibition … at 1 × 10^-7 M” value of the first is higher: 82% for the first, 57% for the second.

With `CSCC[C@H](NC(=O)c1ccc(CSC2=NCCS2)cc1-c1ccccc1C)C(=O)O` [Example 730] the “% inhibition … at 1 × 10^-7 M” value was 96%.

Same assay, conditions: 1 × 10^-8 M (Table 4)

Compared with `CSCC[C@H](NC(=O)c1ccc(CN(Cc2ccccc2)c2ccc(SC)cc2)cc1-c1ccccc1C)C(=O)[O-].[Li+]` [Example 852], `CSCC[C@H](NC(=O)c1ccc(CN(Cc2ccccc2)c2cccc(SC)c2)cc1-c1ccccc1C)C(=O)[O-].[Li+]` [Example 851] is higher in “% inhibition of farnesyltransferase at 1 × 10^-8 M” value (shortened to “% inhibition … at 1 × 10^-8 M”): 79% for the first, 82% for the second.

Going from `CSCC[C@H](NC(=O)c1ccc(CN(C)C(CC2CCCCC2)CC2CCCCC2)cc1-c1ccccc1C)C(=O)O` [Example 907] to `CCCCS(=O)(=O)N(Cc1ccc(C(=O)N[C@@H](CCSC)C(=O)O)c(-c2ccccc2C)c1)CC1CCCCC1` [Example 996], the “% inhibition … at 1 × 10^-8 M” value rises from 79% to 80%.

Going from `CSCC[C@H](NC(=O)c1ccc(CN(CCC2CCCCC2)Cc2ccccc2)cc1-c1ccccc1C)C(=O)[O-].[Li+]` [Example 605] to `CCCCS(=O)(=O)N(CCC1CCCCC1)Cc1ccc(C(=O)N[C@@H](CCSC)C(=O)O)c(-c2ccccc2C)c1` [Example 916], the “% inhibition … at 1 × 10^-8 M” value rises from 68% to 96%.

First: CSCC[C@H](NC(=O)c1ccc(CN(Cc2cncs2)C2CCSCC2)cc1-c1ccccc1C)C(=O)O [Example 881]
Second: CCCCC(OCc1ccc(C(=O)N[C@@H](CCSC)C(=O)O)c(-c2ccccc2C)c1)c1cncs1 (stereo partly shown) [Example 985]
The “% inhibition … at 1 × 10^-8 M” value of the first is lower: 69% for the first, 89% for the second.

First: COc1ccc(N(Cc2ccccc2)Cc2ccc(C(=O)N[C@@H](CCSC)C(=O)O)c(-c3ccccc3C)c2)cc1 [Example 840]
Second: CSCC[C@H](NC(=O)c1ccc(CN(Cc2ccccc2)c2cccc(Cl)c2)cc1-c1ccccc1C)C(=O)O [Example 847]
The “% inhibition … at 1 × 10^-8 M” value of the first is lower: 73% for the first, 85% for the second.

Going from `CSCC[C@H](NC(=O)c1ccc(COCCCC23CC4CC(CC(C4)C2)C3)cc1-c1ccccc1C)C(=O)[O-].[Li+]` [Example 599] to `COc1cccc(COCc2ccc(C(=O)N[C@@H](CCSC)C(=O)[O-])c(-c3ccccc3C)c2)c1.[Li+]` [Example 932], the “% inhibition … at 1 × 10^-8 M” value falls from 86% to 60%.

In the case of `CSCC[C@H](NC(=O)c1ccc(COC(Cc2ccccc2)c2cncs2)cc1-c1ccccc1C)C(=O)[O-].[Li+]` (stereo partly shown) [Example 828], the “% inhibition … at 1 × 10^-8 M” value is reported as 87%.

Same assay, conditions: read-out: % inhibition at 0.01 μM (**); Table 6, ** = 0.01 μM (footnote); title prints 0.01 mM

Compared with `CCCCN(CC1CCCCC1)OCc1ccc(C(=O)N[C@@H](CCSC)C(=O)O)c(-c2ccccc2C)c1` [Example 1186], `CSCC[C@H](NC(=O)c1ccc(Cc2nnnn2CC2CCCCC2)cc1-c1ccccc1C)C(=O)O` [Example 1100, N-[4-(1-cyclohexylmethyltetrazol-5-ylmethyl)-2-(2-methylphenyl)benzoyl]methionine] is lower in inhibition at 0.01 µM: 93% for the first, 82% for the second.

In the case of `CSCC[C@H](NC(=O)c1ccc(CN2CCC[C@H]2COC2CCCCC2)cc1-c1ccccc1C)C(=O)O` [Example 1116, N-[4-(2(S)-cyclohexyloxymethylpyrrolidin-1-ylmethyl)-2-(2-methylphenyl)benzoyl]methionine], the inhibition at 0.01 µM is reported as 91%.

Same assay, conditions: read-out: % inhibition of farnesyltransferase at 1 × 10^-6 M; 1 × 10^-6 M (Table 2)

First: CSCC[C@H](NC(=O)c1ccc(S(=O)(=O)NCCN2CCOCC2)cc1-c1ccccc1C)C(=O)O [Example 775, lithium salt]
Second: CSCC[C@H](NC(=O)c1ccc(CN(C(C)C)C2(CC3CCCCC3)CC2)cc1-c1ccccc1C)C(=O)O [Example 326]
The inhibition at 1 µM of the first is lower: 32% for the first, 91% for the second.

Compared with `CSCC[C@H](NC(=O)c1ccc(CN(C(C)C)C(C)(C)Cc2ccccc2)cc1-c1ccccc1C)C(=O)O` [Example 317], `CCCCN(C)N(CCC1CCCCC1)Cc1ccc(C(=O)N[C@@H](CCSC)C(=O)O)c(-c2ccccc2C)c1` [Example 299] is higher in inhibition at 1 µM: 54% for the first, 94% for the second.
